Legend:
Experiment in all cases: Methyl transferase scintillation proximity assay
Type in all cases: biochemical
Settings in all cases: average of two measurements; for inhibition at 10 µM: read-out: MTases Inhibition (%)
[1] = target: T1, DNMT3A/3L (Homo sapiens, UniProt Q9Y6K1)
T1 construct: purchased DiscoverX BROMOscan (bromodomains); SGC in-house methyltransferase panel
Summary of the method: (§1)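 Read-out is scintillation counts (CPM) from biotinylated substrate carrying a ^3H-methyl group, normalised to no-compound (100%) and no-enzyme (0%) wells. Reactions used ^3H-SAM and substrate close to each enzyme's apparent Km.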

[2] = target: T2, SUV420H2 (Homo sapiens, UniProt Q86Y97)
T2 construct: purchased DiscoverX BROMOscan (bromodomains); SGC in-house methyltransferase panel
T2 sequence (Q86Y97 whole entry): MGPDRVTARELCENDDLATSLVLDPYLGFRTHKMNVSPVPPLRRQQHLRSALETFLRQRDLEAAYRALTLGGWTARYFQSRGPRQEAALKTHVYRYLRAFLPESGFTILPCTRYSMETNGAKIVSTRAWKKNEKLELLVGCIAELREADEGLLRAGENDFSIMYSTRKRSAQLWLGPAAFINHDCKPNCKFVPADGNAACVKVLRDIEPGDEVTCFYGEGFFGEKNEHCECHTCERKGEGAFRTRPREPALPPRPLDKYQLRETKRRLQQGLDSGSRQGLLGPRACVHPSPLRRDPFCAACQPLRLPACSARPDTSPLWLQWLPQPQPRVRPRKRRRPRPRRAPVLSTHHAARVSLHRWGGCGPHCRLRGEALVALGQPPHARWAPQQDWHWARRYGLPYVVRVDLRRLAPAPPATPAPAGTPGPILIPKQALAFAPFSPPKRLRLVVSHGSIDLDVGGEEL
Summary of the method: as §1

[3] = target: T3, PRMT9 (Homo sapiens, UniProt Q6P2P2)
T3 construct: purchased DiscoverX BROMOscan (bromodomains); SGC in-house methyltransferase panel
T3 sequence (Q6P2P2 1-845): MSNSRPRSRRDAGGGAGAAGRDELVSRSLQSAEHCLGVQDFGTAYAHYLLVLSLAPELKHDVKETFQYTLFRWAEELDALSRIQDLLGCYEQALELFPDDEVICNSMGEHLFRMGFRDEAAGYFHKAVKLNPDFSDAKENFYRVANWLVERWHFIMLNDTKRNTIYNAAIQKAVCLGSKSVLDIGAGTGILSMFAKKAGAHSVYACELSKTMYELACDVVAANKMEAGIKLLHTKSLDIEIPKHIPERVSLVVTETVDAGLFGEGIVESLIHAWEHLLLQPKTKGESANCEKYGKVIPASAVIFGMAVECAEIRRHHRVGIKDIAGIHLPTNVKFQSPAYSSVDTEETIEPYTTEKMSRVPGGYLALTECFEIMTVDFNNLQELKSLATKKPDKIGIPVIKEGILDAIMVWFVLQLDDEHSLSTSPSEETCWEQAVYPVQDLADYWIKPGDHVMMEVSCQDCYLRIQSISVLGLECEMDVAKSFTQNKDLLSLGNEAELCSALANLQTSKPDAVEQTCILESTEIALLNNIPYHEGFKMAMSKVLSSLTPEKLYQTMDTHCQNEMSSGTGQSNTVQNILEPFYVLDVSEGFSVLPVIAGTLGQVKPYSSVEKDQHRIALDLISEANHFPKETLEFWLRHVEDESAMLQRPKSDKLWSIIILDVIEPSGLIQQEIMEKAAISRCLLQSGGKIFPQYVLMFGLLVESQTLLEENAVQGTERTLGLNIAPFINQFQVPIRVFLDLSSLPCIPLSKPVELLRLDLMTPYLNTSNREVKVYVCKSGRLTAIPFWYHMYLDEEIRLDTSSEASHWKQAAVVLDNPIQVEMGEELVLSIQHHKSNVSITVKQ
Summary of the method: as §1

[4] = target: T4, MLL3 (pentameric) (Homo sapiens, UniProt Q8NEZ4)
T4 construct: purchased DiscoverX BROMOscan (bromodomains); SGC in-house methyltransferase panel
Summary of the method: as §1

[5] = target: T5, PRDM9 (Homo sapiens, UniProt Q9NQV7)
T5 construct: purchased DiscoverX BROMOscan (bromodomains); SGC in-house methyltransferase panel
T5 sequence (Q9NQV7 whole entry): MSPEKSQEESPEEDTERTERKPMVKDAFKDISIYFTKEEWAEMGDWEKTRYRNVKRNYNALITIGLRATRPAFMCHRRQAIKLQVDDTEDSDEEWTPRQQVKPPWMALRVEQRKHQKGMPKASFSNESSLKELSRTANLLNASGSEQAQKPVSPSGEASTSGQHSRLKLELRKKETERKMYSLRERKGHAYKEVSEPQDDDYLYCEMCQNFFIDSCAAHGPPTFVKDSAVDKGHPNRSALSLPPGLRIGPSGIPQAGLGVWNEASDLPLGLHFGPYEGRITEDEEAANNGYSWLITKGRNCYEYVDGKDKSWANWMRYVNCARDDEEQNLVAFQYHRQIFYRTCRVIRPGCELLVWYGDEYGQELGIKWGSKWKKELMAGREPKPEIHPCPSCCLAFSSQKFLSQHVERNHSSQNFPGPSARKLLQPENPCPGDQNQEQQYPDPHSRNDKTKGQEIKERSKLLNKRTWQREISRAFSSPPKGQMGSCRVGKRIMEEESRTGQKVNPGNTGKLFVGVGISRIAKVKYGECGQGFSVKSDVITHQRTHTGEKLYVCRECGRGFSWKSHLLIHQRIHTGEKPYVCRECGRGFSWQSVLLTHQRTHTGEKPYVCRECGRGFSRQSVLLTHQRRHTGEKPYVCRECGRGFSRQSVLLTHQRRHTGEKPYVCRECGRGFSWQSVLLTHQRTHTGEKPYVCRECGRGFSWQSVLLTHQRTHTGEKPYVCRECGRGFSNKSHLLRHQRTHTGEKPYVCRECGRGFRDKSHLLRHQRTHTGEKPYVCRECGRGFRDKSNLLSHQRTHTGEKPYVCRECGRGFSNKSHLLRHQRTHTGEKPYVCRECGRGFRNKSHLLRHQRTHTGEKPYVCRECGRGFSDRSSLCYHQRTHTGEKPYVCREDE
Summary of the method: as §1

[6] = target: T6, SUV39H2 (Homo sapiens, UniProt Q9H5I1)
T6 construct: purchased DiscoverX BROMOscan (bromodomains); SGC in-house methyltransferase panel
T6 sequence (Q9H5I1 whole entry): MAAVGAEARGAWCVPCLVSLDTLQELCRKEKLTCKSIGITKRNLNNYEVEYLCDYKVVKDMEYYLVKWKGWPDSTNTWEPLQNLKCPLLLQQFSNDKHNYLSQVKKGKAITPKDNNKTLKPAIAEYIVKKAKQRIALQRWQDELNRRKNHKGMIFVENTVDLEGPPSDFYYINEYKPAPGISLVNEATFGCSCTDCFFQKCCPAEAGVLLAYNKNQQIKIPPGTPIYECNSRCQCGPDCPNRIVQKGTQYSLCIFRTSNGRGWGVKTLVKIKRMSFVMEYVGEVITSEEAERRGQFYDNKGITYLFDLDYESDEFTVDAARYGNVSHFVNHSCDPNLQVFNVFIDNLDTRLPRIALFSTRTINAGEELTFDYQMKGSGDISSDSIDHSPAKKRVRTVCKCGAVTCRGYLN
Summary of the method: as §1

[7] = target: T7, NSD2 (Homo sapiens, UniProt O96028)
T7 construct: purchased DiscoverX BROMOscan (bromodomains); SGC in-house methyltransferase panel
T7 sequence (O96028 1-1365): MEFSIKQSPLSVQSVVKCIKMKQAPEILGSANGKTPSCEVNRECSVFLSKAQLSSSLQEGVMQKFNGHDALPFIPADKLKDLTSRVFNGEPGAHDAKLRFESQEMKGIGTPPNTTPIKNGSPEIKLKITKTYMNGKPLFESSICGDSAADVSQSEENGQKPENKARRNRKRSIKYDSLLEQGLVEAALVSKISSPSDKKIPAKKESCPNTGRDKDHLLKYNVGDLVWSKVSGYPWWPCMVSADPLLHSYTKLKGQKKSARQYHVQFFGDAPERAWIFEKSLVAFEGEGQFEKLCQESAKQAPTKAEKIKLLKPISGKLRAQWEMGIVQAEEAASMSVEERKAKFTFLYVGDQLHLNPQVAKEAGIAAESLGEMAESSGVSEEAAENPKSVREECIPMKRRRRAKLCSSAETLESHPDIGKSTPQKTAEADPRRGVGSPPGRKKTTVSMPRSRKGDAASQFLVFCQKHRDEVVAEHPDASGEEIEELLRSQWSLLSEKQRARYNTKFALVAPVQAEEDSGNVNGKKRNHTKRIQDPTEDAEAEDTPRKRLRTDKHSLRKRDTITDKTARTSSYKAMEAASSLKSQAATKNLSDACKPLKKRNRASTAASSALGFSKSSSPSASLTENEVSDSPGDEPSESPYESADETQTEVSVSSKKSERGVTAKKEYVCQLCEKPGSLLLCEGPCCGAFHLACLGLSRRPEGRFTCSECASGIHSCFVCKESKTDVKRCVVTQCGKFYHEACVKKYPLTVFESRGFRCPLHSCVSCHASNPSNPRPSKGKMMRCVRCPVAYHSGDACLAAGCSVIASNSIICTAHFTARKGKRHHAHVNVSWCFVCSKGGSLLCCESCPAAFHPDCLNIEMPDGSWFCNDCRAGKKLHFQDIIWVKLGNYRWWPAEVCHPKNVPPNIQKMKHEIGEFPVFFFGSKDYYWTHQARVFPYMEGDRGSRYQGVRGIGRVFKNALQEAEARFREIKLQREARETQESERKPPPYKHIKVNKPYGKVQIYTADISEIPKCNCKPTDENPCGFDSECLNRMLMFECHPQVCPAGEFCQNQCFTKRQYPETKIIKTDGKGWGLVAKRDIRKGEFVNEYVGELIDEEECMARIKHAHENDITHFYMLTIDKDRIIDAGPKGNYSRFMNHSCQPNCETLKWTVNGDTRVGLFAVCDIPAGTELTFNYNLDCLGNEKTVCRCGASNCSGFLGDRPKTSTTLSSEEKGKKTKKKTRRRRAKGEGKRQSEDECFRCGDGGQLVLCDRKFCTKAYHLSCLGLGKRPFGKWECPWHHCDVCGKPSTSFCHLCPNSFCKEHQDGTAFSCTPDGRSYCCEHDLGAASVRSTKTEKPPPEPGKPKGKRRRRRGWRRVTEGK
Summary of the method: as §1

T1 sequence (Q9Y6K1 whole entry, looked up): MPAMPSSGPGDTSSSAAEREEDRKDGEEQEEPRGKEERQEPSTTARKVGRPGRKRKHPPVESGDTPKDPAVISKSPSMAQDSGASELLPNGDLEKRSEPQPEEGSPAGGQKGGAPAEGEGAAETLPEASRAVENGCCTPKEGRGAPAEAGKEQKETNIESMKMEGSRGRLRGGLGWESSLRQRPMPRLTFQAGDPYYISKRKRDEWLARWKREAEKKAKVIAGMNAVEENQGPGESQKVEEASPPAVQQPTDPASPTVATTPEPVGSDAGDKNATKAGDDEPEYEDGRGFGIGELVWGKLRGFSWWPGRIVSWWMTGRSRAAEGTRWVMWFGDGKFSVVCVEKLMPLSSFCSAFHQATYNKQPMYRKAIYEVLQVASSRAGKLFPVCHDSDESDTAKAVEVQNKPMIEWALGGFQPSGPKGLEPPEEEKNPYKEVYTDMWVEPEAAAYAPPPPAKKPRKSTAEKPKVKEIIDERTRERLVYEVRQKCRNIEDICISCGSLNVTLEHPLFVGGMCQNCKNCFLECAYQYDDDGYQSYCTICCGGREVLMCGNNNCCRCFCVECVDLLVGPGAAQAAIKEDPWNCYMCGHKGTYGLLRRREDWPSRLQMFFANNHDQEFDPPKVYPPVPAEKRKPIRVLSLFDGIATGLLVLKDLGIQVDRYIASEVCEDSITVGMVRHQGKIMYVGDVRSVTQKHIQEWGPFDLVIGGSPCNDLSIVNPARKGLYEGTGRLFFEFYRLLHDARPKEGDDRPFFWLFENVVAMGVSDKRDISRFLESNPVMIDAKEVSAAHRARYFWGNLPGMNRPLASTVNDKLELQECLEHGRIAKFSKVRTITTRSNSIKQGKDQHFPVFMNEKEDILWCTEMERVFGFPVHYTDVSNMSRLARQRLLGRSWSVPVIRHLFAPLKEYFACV
T1 sequence (Q9UJW3 whole entry partner): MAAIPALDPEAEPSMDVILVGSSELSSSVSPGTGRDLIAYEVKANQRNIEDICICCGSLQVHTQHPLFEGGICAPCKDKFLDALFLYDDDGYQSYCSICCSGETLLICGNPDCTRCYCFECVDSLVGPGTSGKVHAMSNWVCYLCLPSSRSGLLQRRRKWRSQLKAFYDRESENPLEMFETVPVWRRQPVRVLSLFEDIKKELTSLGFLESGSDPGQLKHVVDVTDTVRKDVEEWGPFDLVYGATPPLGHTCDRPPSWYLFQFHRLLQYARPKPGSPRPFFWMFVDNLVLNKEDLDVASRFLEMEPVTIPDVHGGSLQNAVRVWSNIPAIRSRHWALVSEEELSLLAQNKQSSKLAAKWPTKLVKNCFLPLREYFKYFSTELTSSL

inhibition at 10 µM [1] [%]	inhibition at 10 µM [2] [%]	inhibition at 10 µM [3] [%]	inhibition at 10 µM [4] [%]	inhibition at 10 µM [5] [%]	inhibition at 10 µM [6] [%]	inhibition at 10 µM [7] [%]	MTases Inhibition (%) ([1]; 10µM)	MTases Inhibition (%) ([2]; 10µM)	MTases Inhibition (%) ([3]; 10µM)	MTases Inhibition (%) ([4]; 10µM)	MTases Inhibition (%) ([5]; 10µM)	MTases Inhibition (%) ([6]; 10µM)	MTases Inhibition (%) ([7]; 10µM)	Structure (SMILES)
-1	-3	3	7	3	12	2								Cc1c(NC(=O)c2cc(C(N)=O)nc3cc(F)ccc23)c(C(F)(F)F)nn1Cc1ccc(C(C)(C)C)cc1 [BAY-588]
21	0	15	0	10	-2	-1								COc1cc(Cl)c(C(=O)N[C@@H](CN[C@H]2CC[C@@H](N)CC2)Cc2ccc(C#N)cc2)cc1-c1ccc(CN[C@H](C)c2ccc(C)cc2)o1 [BAY-850]
6	-1	12	0	0	-2	0								Cc1c(NC(=O)c2cc(C(N)=O)nc3cc(F)ccc23)c(C(F)(F)F)nn1Cc1ccc(C#N)cc1 [BAY-876]
3	-1	8	2	3	5	15								CN1C[C@H](Nc2cnn(C)c(=O)c2Br)C[C@H](c2ccccc2)C1 [GSK4027]
							13	-2	12	2	-2	1	13	COc1ccccc1C(=O)Nc1cc2c(cc1N1CCNC[C@H]1C)n(C)c(=O)n2C [GSK6853]
8	0	3	0	0	3	24								CO[C@H]1CNC[C@@H](OCC2CCC(F)(F)CC2)[C@@H]1Nc1ncc(-c2cncc(C)c2)c2cc(C)c(=O)[nH]c12 [GSK8814]
2	6	13	1	4	5	2								Cc1nnc2c3ccccc3c(N[C@@H](C)[C@H](c3ccccc3)N(C)C)nn12 [L-Moses]
8	0	7	-3	-1	7	3								CN(C)CCCOc1ccc(-c2cc(NCCCn3cccn3)nc(S(C)(=O)=O)n2)cc1 [TP-238]
